# Data: patent US20230115945A1, “AMINOPYRIMIDINE COMPOUNDS” (TYRA BIOSCIENCES, INC., priority 2019, published 2023)
# Assays:
# FGFR3 (V555M) = molecular target: T1, FGFR3 (V555M) (Homo sapiens, UniProt P22607, V555M); experiment: Kinase binding assay (Kd), FGFR3 (V555M); settings: 11-point 3-fold dilution, qPCR readout
# T1 construct: made in house; host or cells: E. coli host derived from BL21, infected with T7 phage
# How it was run: (§1)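 Kinases expressed as T7 phage fusions are mixed with ligand-coated magnetic beads and compound (0.9% DMSO), then shaken 1 h at room temperature. After washing, bound kinase is eluted with free ligand for 30 min and measured by qPCR; Kd is obtained by Hill-equation fitting.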
# FGFR2 = molecular target: T2, FGFR2 (Homo sapiens, UniProt P21802); experiment: Kinase binding assay (Kd), FGFR2; settings: 11-point 3-fold dilution, qPCR readout
# T2 construct: made in house; host or cells: E. coli host derived from BL21, infected with T7 phage
# T2 sequence (P21802 22-821): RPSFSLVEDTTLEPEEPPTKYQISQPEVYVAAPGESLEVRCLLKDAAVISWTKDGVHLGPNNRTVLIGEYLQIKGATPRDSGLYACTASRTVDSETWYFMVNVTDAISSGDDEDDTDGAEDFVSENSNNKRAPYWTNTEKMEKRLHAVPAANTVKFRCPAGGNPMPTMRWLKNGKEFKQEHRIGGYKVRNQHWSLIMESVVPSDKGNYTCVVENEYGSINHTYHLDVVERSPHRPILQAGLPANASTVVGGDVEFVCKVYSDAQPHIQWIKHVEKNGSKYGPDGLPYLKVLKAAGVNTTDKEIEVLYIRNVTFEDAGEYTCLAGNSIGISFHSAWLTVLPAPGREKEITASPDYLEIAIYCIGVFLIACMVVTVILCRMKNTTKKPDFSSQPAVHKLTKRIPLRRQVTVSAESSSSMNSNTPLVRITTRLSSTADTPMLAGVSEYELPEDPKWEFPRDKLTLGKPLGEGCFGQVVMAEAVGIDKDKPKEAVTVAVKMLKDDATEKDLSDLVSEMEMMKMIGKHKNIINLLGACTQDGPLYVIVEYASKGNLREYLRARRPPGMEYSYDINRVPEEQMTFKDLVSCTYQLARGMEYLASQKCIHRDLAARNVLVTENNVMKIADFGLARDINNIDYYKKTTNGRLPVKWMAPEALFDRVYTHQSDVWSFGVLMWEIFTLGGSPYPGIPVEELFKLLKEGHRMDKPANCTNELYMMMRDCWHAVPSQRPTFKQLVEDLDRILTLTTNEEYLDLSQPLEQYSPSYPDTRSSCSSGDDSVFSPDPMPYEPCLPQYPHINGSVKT
# How it was run: as §1
# [1] = molecular target: T3, FGFR3-BAIAP2L1 Ba/F3 cells (Homo sapiens, UniProt P22607); experiment: Ba/F3 cell viability assay, FGFR3; format: cell-based; settings: FGFR3-BAIAP2L1 fusion Ba/F3, 48 hours, Cell Titer-Glo 2.0; read-out: Ba/F3 Cells FGFR3 (IC50 nM)
# T3 construct: Ba/F3 FGFR3; FGFR3--BAIAP2L1 fusion; Advanced Cellular Dynamics, (Seattle, WA); fused on or other part: Q9UHR4 (BAR/IMD domain-containing adapter protein 2-like 1)
# T3 sequence (P22607 whole entry, change not shown, the tested form may be a part): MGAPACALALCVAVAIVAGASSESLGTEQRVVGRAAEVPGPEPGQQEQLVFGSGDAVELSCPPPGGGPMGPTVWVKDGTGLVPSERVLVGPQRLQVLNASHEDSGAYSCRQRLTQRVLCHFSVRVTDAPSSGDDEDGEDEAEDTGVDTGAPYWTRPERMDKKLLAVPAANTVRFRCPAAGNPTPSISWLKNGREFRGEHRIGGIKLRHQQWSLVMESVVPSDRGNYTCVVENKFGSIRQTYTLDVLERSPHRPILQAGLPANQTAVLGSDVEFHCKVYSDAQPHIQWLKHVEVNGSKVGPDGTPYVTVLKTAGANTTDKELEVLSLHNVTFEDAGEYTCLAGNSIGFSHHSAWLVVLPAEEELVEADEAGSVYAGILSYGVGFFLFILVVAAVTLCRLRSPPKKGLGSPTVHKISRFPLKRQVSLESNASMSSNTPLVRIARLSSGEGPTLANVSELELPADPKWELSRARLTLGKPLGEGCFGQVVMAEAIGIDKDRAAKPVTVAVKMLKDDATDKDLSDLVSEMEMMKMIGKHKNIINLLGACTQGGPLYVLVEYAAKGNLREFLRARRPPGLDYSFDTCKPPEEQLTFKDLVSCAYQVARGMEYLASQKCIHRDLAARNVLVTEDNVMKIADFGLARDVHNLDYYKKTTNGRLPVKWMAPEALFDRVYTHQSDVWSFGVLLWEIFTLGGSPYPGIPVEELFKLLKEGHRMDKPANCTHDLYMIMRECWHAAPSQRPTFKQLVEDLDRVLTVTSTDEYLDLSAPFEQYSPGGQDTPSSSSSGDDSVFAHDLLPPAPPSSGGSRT
# Text: (§2) Experimental Purpose: Recombinant kinase fusions are transduced into parental Ba/F3, which becomes dependent upon this constitutive kinase activity for IL3-independent survival. Inhibition of kinase activity leads to cell death, which is monitored using CellTiter-Glo® 2.0 (Promega) which measures intracellular ATP concentration that in turn serves as a marker for viability. FGFR1-BCR Ba/F3 and FGFR3-BAIAP2L1 Ba/F3 were obtained from Advanced Cellular Dynamics (Seattle, Wash.)
# (§3) Cell Viability Assay Procedure: Cell Titer-Glo® 2.0 Luminescent cell viability assay reagent was purchased from Promega (Madison, Wis.). FGFR1-BCR Ba/F3 and FGFR3-BAIAP2L1 Ba/F3 cells were cultured in RPMI1640 media supplemented with 10% fetal bovine serum. Cultures were maintained at 37° C. in a humidified atmosphere of 5% CO2 and 95% air.
# (§4) Cells were plated in 96-well clear bottom/white plates (Corning #3903) at 10,000 cells/well in 100 μl of media, incubated overnight. The next day, test compound DMSO stock solutions were made at 10 mM and 2 μM final concentration. Compounds were then added to cells in a 9-dose, 10-fold dilution series starting at 30 μM with an HP 300e Digital Dispenser (each dose was applied in triplicate). DMSO was backfilled to each well up to 301 nL total volume of test compound+DMSO, and a total of 301 nL DMSO was added to a control/no test compound well in triplicate. The cells in cell culture plates were incubated with the compounds at 37° C. and 5% CO2 for 48 hours. Then 50 μl of Cell Titer Glo 2.0 reagent was added to each well of the cell culture plates. The contents were covered from light and mixed on an orbital shaker at room temperature for 10 min. Luminescence was recorded by a Synergy H1 Microplate Reader (Biotek, Winooski, Vt.). Cells were assessed as a percentage of DMSO only treated control cells. Curves were plotted and IC50 values were calculated using the GraphPad Prism 8 program based on a sigmoidal dose-response equation (4 parameter).
# FGFR1-BCR Ba/F3 cells = molecular target: T4, FGFR1-BCR Ba/F3 cells (Homo sapiens, UniProt P11362); experiment: Ba/F3 cell viability assay, FGFR1; format: cell-based; settings: FGFR1-BCR Ba/F3, 48 hours, Cell Titer-Glo 2.0; read-out: Ba/F3 Cells FGFR1 (IC50 nM)
# T4 construct: Ba/F3 FGFR1; FGFR1-BCR; Advanced Cellular Dynamics, (Seattle, WA); fused on or other part: P11274 (Breakpoint cluster region protein)
# T4 sequence (P11362 whole entry, change not shown, the tested form may be a part): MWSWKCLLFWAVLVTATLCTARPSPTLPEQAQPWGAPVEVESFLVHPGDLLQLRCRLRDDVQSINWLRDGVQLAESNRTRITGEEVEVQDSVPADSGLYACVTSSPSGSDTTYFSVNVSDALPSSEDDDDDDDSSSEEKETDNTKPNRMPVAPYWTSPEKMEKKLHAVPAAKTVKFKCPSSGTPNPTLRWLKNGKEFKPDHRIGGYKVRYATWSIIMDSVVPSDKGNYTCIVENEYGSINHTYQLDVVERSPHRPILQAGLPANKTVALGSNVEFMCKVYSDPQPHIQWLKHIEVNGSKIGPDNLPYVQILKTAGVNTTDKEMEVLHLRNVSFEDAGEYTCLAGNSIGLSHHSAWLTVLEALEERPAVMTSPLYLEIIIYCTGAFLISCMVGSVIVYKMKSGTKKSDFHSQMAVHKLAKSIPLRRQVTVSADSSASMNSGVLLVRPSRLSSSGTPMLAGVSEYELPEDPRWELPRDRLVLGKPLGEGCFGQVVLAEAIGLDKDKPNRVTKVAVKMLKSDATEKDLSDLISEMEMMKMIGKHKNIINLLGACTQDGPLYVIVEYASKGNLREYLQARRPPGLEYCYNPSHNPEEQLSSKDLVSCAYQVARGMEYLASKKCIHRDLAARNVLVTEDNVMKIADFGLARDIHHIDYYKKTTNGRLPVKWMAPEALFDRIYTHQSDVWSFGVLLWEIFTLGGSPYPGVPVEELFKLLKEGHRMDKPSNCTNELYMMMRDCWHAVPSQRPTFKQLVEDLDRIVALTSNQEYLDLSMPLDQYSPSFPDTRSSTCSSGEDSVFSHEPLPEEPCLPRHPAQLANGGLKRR
# Text: as §2, §3, §4
# [2] = test system: UM-UC-14 cells (Bladder Cancer, FGFR3(S249C)); experiment: Cancer cell line cell viability assay, UM-UC-14; format: cell-based; settings: UMUC14; 72 hours, Cell Titer-Glo 2.0; read-out: Cancer Cell Viability Assays UM-UC-14 (IC50 nM)
# Text: To detect the change of intracellular ATP by Cell Titer-Glo® and to evaluate the inhibitory effect of the compounds on cancer cell lines by determining the in vitro IC50 value of the compounds.
# Cell Titer-Glo® 2.0 Luminescent cell viability assay reagent was purchased from Promega (Madison, Wis.). RT112/84, SNU-16, and KG-1 cell lines were purchased from American Type Culture Collection (Manassas, Va.). UM-UC-14 cell line was purchased from Sigma (St. Louis, Mo.). RT112/84, UM-UC-14, SNU-16, and KG-1 cells were cultured in RPMI1640 media supplemented with 10% fetal bovine serum. Cultures were maintained at 37° C. in a humidified atmosphere of 5% CO2 and 95% air.
# Cell Viability Assay Procedure: Cells were plated in 96-well clear bottom/white plates (Corning #3903) at 10,000 cells/well in 100 μl of media, incubated overnight. The next day, test compound DMSO stock solutions were made at 10 mM and 2 μM final concentration. Compounds were then added to cells in a 9-dose, 10-fold dilution series starting at 30 μM with an HP 300e Digital Dispenser (each dose was applied in triplicate). DMSO was backfilled to each well up to 301 nL total volume of test compound+DMSO, and a total of 301 nL DMSO was added to a control/no test compound well in triplicate. The cells in cell culture plates were incubated with the compounds at 37° C. and 5% CO2 for 72 hours. Then 50 μl of Cell Titer Glo 2.0 reagent was added to each well of the cell culture plates. The contents were covered from light and mixed on an orbital shaker at room temperature for 10 min. Luminescence was recorded by a Synergy H1 Microplate Reader (Biotek, Winooski, Vt.). Cells were assessed as a percentage of DMSO only treated control cells. Curves were plotted and IC50 values were calculated using the GraphPad Prism 8 program based on a sigmoidal dose-response equation (4 parameter).
# T1 sequence (P22607 23-806 V555M): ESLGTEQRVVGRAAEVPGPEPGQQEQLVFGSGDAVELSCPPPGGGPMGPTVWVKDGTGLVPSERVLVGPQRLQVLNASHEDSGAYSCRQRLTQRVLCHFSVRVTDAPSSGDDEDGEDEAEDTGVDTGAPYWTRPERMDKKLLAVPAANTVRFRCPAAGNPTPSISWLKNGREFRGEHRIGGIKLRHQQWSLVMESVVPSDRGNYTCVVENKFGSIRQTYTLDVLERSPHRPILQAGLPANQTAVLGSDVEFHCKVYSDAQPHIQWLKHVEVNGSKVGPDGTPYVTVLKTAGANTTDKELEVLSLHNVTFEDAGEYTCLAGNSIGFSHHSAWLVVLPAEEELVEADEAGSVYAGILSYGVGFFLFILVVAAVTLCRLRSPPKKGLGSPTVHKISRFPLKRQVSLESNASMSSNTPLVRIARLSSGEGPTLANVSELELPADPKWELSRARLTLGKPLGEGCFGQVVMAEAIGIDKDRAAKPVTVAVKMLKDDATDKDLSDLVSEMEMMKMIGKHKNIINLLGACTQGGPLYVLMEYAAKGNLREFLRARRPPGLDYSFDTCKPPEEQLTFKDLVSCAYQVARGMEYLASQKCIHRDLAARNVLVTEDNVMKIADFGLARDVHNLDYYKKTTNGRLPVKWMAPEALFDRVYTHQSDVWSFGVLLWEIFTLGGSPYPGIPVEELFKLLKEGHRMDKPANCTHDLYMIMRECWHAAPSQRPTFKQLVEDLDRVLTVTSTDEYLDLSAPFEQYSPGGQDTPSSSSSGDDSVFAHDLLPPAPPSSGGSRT
SMILES,Kd (FGFR3 (V555M)),Kd (FGFR2),GI50 [1],GI50 (FGFR1-BCR Ba/F3 cells),IC50 [2]
"C=CC(=O)Nc1ccc2c(ccn2-c2nc(Nc3ccc(S(C)(=N)=O)cc3)ncc2Cl)c1 (stereo not shown) [Example 70, N-[1-[5-Chloro-2-[4-(methylsulfonimidoyl)anilino]-pyrimidin-4-yl]indol-5-yl]prop-2-enamide]",9.2 nM,25 nM,34 nM,8 nM,34 nM
"C=CC(=O)Nc1ccc2c(c1)c(C)cn2-c1nc(Nc2ccc(N=S(C)(C)=O)c(OC)c2)ncc1Cl [Example 64, N-[1-[5-Chloro-2-[4-[[dimethyl(oxo)-λ^6-sulfanylidene]amino]-3-methoxy-anilino]pyrimidin-4-yl]-3-methyl-indol-5-yl]prop-2-enamide]",1 nM,4 nM,12 nM,3 nM,3 nM
"C=CC(=O)Nc1ccc2c(-c3nc(Nc4ccc(N=S(C)(C)=O)cc4)ncc3Cl)cn(C)c2c1 [Example 92, N-[3-[5-chloro-2-[4-[[dimethyl(oxo)-λ^6-sulfanylidene]amino]anilino]pyrimidin-4-yl]-1-methyl-indol-6-yl]prop-2-enamide]",3 nM,13 nM,15 nM,1 nM,10 nM
"C=CC(=O)Nc1ccc2c(c1)c(C)cn2-c1nc(Nc2ccc(N=S(C)(C)=O)cc2)ncc1Cl [Example 61, N-[1-[5-Chloro-2-[4-[[dimethyl(oxo)-λ^6-sulfanylidene]amino]anilino]pyrimidin-4-yl]-3-methyl-indol-5-yl]prop-2-enamide]",2 nM,6 nM,15 nM,2 nM,12 nM
"C=CC(=O)Nc1ccc2c(c1)c(C)cn2-c1nc(Nc2ccc(N=S(C)(C)=O)c(F)c2)ncc1C#N [Example 62, N-[1-[5-Cyano-2-[4-[[dimethyl(oxo)-λ^6-sulfanylidene]amino]-3-fluoro-anilino]pyrimidin-4-yl]-3-methyl-indol-5-yl]prop-2-enamide]",11 nM,16 nM,46 nM,9 nM,152 nM
"C=CC(=O)Nc1ccc2c(c1)c(C)cn2-c1nc(Nc2ccc(N=S(C)(C)=O)c(F)c2)ncc1Cl [Example 60, N-[1-[5-Chloro-2-[4-[[dimethyl(oxo)-λ^6-sulfanylidene]amino]-3-fluoro-anilino]pyrimidin-4-yl]-3-methyl-indol-5-yl]prop-2-enamide]",1.7 nM,3.2 nM,10 nM,2 nM,6 nM
"C=CC(=O)Nc1ccc2c(c1)c(C)cn2-c1nc(Nc2ccc(N=S(C)(C)=O)c(F)c2)ncc1C [Example 63, N-[1-[2-[4-[[dimethyl(oxo)-λ^6-sulfanylidene]amino]-3-fluoro-anilino]-5-methyl-pyrimidin-4-yl]-3-methyl-indol-5-yl]prop-2-enamide]",1 nM,3 nM,5 nM,1 nM,3 nM
"C=CC(=O)Nc1ccc2c(ccn2-c2nc(Nc3ccc(N=S(C)(C)=O)cc3)ncc2Cl)c1 [Example 66, N-[1-[5-chloro-2-[4-[[dimethyl(oxo)-λ^6-sulfanylidene]amino]anilino]-pyrimidin-4-yl]indol-5-yl]prop-2-enamide]",5.3 nM,37 nM,28 nM,6 nM,34 nM
